Results published in paper PMC11513893, “Discovery of Oral Degraders of the ROS1 Fusion Protein with Potent Activity against Secondary Resistance Mutations” (Journal of Medicinal Chemistry, 2024).

Experiments:
[1] = target: ROS1 (G2101C) (Homo sapiens, UniProt P08922, G2101C); assay: Kinase assay; format: biochemical; conditions: average of duplicate measurements
[2] = tested on: Ba/F3 ROS1 (SLC34A2) G2032R-F2075C; assay: Antiproliferation assay; format: cell-based; conditions: Mus musculus, BaF3; Ba/F3 cell line
Procedure: (§1) Ba/F3 immortalized murine bone marrow–derived pro-B cells were obtained from Creative Biogene (Shirley, NY) and cultured in RPMI supplemented with 10% FBS and IL3 (0.5 ng/mL). Ba/F3 cells expressing ROS1 variants were maintained in RPMI supplemented with 10% FBS and puromycin (0.7 mg/mL). Crizotinib, ceritinib, brigatinib, repotrectinib, and lorlatinib were purchased from MedChem Express. Each compound was dissolved in DMSO and serially diluted in RPMI for cell culture experiments.
(§2) To assess the 72 h effect of drug treatment on cell proliferation, 2000 to 3000 cells were plated in replicates of three in 96-well plates. The plates were placed in an incubator at 37 °C, 5% CO2 for 72 h. Following drug treatments, the cells were incubated with the Alamar Blue Assay reagent (BioRad), 5 μL each well for 4 h at 37 °C and 5% CO2. Luminescence was measured on a multiplate reader and analyzed. […] IC50 values were determined using a nonlinear regression model with a sigmoidal dose response in GraphPad. The data were collected based on triplicate experiments, and presented as mean ± SD.

[3] = tested on: Ba/F3 ROS1 (SLC34A2) F2075C-G1837E; assay: Antiproliferation assay; format: cell-based; conditions: Mus musculus, BaF3; Ba/F3 cell line
Procedure: as §1, §2

[4] = tested on: Ba/F3 ROS1 (SLC34A2) G2032R-D2113G; assay: Antiproliferation assay; format: cell-based; conditions: Mus musculus, BaF3; Ba/F3 cell line
Procedure: as §1, §2

[5] = target: T1, FAK/PTK2 (Homo sapiens, UniProt Q05397); assay: Kinase assay; format: biochemical; conditions: average of duplicate measurements
T1 sequence (Q05397 whole entry): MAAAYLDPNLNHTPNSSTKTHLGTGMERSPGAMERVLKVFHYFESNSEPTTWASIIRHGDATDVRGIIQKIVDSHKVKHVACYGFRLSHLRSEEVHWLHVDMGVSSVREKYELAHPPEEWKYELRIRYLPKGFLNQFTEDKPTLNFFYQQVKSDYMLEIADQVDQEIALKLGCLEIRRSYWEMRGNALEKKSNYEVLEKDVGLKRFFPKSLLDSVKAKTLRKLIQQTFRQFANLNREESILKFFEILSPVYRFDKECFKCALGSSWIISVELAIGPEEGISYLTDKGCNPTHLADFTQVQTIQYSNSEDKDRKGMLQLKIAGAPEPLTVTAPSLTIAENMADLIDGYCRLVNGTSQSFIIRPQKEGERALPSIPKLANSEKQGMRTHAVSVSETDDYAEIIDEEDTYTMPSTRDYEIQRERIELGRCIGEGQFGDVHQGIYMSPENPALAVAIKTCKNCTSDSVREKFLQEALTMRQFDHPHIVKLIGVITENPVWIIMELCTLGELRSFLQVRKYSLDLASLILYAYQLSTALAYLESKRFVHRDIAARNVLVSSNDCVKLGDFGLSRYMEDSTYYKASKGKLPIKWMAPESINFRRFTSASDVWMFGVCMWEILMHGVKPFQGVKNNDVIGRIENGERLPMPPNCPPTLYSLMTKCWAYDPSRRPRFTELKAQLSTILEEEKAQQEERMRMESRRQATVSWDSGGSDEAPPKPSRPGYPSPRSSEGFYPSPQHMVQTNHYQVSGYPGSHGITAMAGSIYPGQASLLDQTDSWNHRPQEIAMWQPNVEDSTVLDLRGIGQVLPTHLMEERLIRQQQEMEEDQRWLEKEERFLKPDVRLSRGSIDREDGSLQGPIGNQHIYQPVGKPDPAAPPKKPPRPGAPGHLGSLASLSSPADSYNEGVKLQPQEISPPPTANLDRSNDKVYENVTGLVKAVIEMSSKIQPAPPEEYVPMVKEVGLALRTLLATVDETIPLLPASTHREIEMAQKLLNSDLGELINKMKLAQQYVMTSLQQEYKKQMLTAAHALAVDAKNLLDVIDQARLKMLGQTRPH

[6] = target: ERBB4/HER4 (Homo sapiens, UniProt Q15303); assay: Degradation assay; format: cell-based; conditions: average of duplicate measurements
Procedure: (§3) However, the degradation selectivity of 9o often contrasts with its kinase binding selectivity as determined in cells treated with 9o where the kinase level was measurable by Western blot analysis. […] For example, FLT3, CHEK2, and FES, all with kinase binding at <10 nM, were only moderately or minimally degraded, if at all (Table 9).

[7] = target: FER (Homo sapiens, UniProt P16591); assay: Degradation assay; format: cell-based; conditions: average of duplicate measurements
Chain of FER (P16591 whole entry, species assumed): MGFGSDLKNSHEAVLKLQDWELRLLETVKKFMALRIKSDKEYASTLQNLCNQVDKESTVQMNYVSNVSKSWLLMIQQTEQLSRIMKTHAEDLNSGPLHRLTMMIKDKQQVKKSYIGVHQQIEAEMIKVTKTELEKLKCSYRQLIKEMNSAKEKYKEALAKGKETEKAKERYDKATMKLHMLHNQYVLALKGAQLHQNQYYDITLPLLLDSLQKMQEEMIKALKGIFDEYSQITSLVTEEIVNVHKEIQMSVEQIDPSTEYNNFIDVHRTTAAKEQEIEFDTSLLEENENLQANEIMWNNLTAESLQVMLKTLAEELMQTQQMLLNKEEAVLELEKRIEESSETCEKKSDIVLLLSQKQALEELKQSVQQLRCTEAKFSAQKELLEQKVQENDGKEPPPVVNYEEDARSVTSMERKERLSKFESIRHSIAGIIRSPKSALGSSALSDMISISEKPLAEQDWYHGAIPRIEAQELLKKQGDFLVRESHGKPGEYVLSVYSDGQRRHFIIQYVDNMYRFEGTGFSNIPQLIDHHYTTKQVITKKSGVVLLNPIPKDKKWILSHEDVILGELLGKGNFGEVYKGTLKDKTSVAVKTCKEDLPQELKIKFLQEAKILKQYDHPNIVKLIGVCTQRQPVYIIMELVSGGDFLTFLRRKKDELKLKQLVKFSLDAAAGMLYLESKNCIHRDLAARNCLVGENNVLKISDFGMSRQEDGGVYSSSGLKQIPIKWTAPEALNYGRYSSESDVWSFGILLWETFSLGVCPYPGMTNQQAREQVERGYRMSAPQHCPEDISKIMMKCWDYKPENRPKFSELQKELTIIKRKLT
Procedure: as §3

[8] = target: EGFR (Homo sapiens, UniProt P00533); assay: Degradation assay; format: cell-based; conditions: average of duplicate measurements
Procedure: as §3

[9] = target: LTK (Homo sapiens, UniProt P29376); assay: Degradation assay; format: cell-based; conditions: average of duplicate measurements
Procedure: as §3

[10] = target: CHEK2 (Homo sapiens, UniProt O96017); assay: Degradation assay; format: cell-based; conditions: average of duplicate measurements
Chain of CHEK2 (O96017 whole entry, species assumed): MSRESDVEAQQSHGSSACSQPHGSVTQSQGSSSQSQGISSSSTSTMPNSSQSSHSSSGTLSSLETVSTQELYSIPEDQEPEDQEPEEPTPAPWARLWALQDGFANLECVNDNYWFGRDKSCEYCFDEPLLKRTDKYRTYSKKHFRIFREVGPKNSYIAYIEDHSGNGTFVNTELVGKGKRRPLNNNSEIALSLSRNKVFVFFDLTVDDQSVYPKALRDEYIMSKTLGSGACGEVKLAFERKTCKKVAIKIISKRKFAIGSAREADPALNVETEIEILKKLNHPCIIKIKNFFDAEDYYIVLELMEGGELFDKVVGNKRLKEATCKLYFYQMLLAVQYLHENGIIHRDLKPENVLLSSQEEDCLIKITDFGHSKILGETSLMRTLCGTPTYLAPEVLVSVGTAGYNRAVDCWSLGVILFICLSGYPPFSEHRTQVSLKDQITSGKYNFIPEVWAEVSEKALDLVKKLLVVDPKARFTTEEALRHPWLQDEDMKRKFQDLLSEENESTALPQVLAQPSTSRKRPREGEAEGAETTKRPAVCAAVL
Procedure: as §3

[11] = target: FLT3 (Homo sapiens, UniProt P36888); assay: Degradation assay; format: cell-based; conditions: average of duplicate measurements
Procedure: as §3

[12] = target: ALK (Homo sapiens, UniProt Q9UM73); assay: Degradation assay; format: cell-based; conditions: average of duplicate measurements
Procedure: as §3

[13] = target: RET (Homo sapiens, UniProt P07949); assay: Degradation assay; format: cell-based; conditions: average of duplicate measurements
Procedure: as §3

[14] = target: CLK1 (Homo sapiens, UniProt P49759); assay: Degradation assay; format: cell-based; conditions: average of duplicate measurements
Procedure: as §3

[15] = target: C-MET (Homo sapiens, UniProt P08581); assay: Degradation assay; format: cell-based; conditions: average of duplicate measurements
Chain of C-MET (P08581 25-1390): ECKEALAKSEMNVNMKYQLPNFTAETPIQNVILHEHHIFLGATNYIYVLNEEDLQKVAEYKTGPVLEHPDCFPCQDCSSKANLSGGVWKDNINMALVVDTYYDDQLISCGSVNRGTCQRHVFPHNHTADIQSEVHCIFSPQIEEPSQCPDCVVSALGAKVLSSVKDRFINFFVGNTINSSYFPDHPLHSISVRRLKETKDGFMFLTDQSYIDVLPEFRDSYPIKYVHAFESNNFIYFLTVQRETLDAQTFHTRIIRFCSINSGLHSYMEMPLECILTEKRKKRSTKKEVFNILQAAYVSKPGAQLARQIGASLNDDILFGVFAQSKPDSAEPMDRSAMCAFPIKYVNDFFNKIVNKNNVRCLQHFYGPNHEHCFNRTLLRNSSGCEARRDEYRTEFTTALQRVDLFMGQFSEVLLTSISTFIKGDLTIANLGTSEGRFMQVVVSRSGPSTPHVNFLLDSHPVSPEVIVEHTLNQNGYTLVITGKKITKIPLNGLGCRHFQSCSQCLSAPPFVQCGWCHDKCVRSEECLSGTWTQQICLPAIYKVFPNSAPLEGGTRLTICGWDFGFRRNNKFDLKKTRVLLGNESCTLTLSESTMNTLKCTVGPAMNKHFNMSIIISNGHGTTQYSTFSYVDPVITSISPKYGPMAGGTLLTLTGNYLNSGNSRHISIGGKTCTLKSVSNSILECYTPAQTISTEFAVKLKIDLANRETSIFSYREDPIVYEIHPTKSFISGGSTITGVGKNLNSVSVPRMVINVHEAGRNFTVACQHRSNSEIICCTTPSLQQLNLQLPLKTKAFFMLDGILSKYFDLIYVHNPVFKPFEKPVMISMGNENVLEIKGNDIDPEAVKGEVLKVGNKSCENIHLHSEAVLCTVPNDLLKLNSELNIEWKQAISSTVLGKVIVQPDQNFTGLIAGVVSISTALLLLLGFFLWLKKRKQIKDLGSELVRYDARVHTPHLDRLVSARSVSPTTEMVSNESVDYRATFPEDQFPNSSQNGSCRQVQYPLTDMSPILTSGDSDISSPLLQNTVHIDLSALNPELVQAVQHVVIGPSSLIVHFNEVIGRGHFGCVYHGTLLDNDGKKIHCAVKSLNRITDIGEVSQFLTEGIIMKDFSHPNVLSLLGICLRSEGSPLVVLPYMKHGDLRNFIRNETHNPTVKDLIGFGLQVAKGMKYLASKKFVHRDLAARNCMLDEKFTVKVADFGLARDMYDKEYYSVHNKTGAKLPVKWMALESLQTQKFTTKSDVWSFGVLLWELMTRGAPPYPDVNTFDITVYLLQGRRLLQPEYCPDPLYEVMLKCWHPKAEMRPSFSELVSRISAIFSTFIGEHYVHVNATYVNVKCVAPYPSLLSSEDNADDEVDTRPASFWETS
Procedure: as §3

[16] = target: ERBB2 (Homo sapiens, UniProt P04626); assay: Degradation assay; format: cell-based; conditions: average of duplicate measurements
Chain of ERBB2 (P04626 23-1255, species assumed): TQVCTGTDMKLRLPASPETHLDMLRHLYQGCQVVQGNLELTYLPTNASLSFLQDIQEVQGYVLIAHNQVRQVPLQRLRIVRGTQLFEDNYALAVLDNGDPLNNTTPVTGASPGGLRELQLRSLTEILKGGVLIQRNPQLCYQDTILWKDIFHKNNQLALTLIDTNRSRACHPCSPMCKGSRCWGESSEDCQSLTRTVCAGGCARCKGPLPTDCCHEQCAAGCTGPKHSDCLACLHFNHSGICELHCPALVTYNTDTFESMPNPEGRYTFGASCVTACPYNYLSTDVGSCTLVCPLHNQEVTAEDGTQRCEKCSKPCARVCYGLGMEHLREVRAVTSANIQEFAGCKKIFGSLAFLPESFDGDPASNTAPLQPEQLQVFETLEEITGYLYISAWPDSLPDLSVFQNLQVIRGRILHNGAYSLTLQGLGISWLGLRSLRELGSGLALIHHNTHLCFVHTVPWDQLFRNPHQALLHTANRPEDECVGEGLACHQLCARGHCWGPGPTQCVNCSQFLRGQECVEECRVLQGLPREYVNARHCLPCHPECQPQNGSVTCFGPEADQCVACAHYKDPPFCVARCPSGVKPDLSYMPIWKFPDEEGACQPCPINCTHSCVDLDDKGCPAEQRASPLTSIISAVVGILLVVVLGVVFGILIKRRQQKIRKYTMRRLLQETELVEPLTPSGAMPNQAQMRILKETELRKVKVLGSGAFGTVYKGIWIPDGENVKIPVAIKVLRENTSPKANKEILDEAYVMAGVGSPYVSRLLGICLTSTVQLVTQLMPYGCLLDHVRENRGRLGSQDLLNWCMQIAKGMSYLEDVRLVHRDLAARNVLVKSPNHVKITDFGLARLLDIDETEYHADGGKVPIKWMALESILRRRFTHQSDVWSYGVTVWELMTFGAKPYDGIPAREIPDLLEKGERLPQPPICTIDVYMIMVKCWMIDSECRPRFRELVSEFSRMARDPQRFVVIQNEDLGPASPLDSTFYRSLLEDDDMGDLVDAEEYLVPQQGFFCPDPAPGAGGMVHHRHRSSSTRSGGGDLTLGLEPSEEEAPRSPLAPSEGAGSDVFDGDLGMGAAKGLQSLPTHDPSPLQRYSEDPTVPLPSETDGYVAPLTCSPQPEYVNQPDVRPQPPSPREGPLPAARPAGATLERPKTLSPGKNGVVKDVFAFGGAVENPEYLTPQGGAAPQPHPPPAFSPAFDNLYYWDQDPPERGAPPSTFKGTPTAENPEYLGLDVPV
Procedure: as §3

[17] = target: T1, FAK/PTK2; assay: Degradation assay; format: cell-based; conditions: average of duplicate measurements
Procedure: as §3

[18] = tested on: Ba/F3 ROS1 (SLC34A2) G2032R-F2075 V; assay: Antiproliferation assay; format: cell-based; conditions: Mus musculus, BaF3; Ba/F3 cell line
Procedure: (§4) Ba/F3 immortalized murine bone marrow–derived pro-B cells were obtained from Creative Biogene (Shirley, NY) and cultured in RPMI supplemented with 10% FBS and IL3 (0.5 ng/mL). Ba/F3 cells expressing ROS1 variants were maintained in RPMI supplemented with 10% FBS and puromycin (0.7 mg/mL). […] Each compound was dissolved in DMSO and serially diluted in RPMI for cell culture experiments.
as §2

[19] = tested on: Ba/F3 ROS1 (SLC34A2) V2098I; assay: Antiproliferation assay; format: cell-based; conditions: Mus musculus, BaF3; Ba/F3 cell line
Procedure: as §4, §2

[20] = tested on: Ba/F3 ROS1 (SLC34A2); assay: Antiproliferation assay; format: cell-based; conditions: Mus musculus, BaF3; Ba/F3 cell line
Procedure: as §4, §2

[21] = tested on: Ba/F3 ROS1 (SLC34A2) L2026M; assay: Antiproliferation assay; format: cell-based; conditions: Mus musculus, BaF3; Ba/F3 cell line
Procedure: as §4, §2

[22] = tested on: Ba/F3 ROS1 (SLC34A2) G2032R; assay: Antiproliferation assay; format: cell-based; conditions: Mus musculus, BaF3; Ba/F3 cell line
Procedure: as §4, §2

[23] = tested on: Ba/F3 ROS1 (SLC34A2) D2033N; assay: Antiproliferation assay; format: cell-based; conditions: Mus musculus, BaF3; Ba/F3 cell line
Procedure: as §4, §2

[24] = target: NUAK1 (Homo sapiens, UniProt O60285); assay: Kinase assay; format: biochemical; conditions: average of duplicate measurements
[25] = Metabolic stability in rat microsomes; format: in vitro ADME; conditions: rat, pooled rat microsomes, pH 7.4, 250 nM compound, NADPH, 37 °C

Compound: COc1cc(N2CCC(N3CCN(CC4CCN(c5ccc6c(c5)CN(C5CCC(=O)NC5=O)C6=O)CC4)CC3)CC2)ccc1Nc1ncc(Cl)c(Nc2ccccc2P(C)(C)=O)n1 (centres unmarked) [9o, 3-(5-(4-((4-(1-(4-((5-Chloro-4-((2-(dimethylphosphoryl)phenyl)amino)pyrimidin-2-yl)amino)-3-methoxyphenyl)piperidin-4-yl)piperazin-1-yl)methyl)piperidin-1-yl)-1-oxoisoindolin-2-yl)piperidine-2,6-dione]
- IC50 [1]: 83 nM
- IC50 [2]: 58.4 ± 11.4 nM
- IC50 [3]: 0.4 ± 0.3 nM
- IC50 [4]: 2.9 ± 0.5 nM
- IC50 [5]: 2.4 nM
- DC50 [6]: > 1000 nM
- DC50 [7]: 17 nM
- DC50 [8]: 255 nM
- DC50 [9]: > 1000 nM
- DC50 [10]: 187 nM
- DC50 [11]: > 1000 nM
- DC50 [12]: 1.7 nM
- DC50 [13]: 58 nM
- DC50 [14]: > 1000 nM
- DC50 [15]: > 1000 nM
- DC50 [16]: 474 nM
- DC50 [17]: 1.5 nM
- IC50 [18]: 5.6 ± 0.6 nM
- IC50 [19]: 4.6 ± 2.1 nM
- IC50 [20]: 1.1 ± 0.4 nM
- IC50 [21]: 2.5 ± 0.6 nM
- IC50 [22]: 6.3 ± 1.1 nM
- IC50 [23]: 9.7 ± 2.6 nM
- IC50 [24]: 47 nM
- microsomal CLint at 1 h, 0.25 µM [25]: 17.4 µL/min/mg
- half-life at 1 h, 0.25 µM ([25]; read-out: metabolic stability in rat microsomes T1/2): 1.33 h
